Test results: ChEMBL document CHEMBL1201862, “PubChem BioAssay data set” (2004)
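Dose response: 5 concentrations. Exposure: 48 h. Format: 96-well plates. Endpoint: linear interpolation; highest concentration if not reached. GI50 is the concentration that inhibits growth by half.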 Calls of active or inactive are those of the source. Cut-off read from the data, not from the text of the source: active = GI50 up to about 1.1 µM and inactive = higher.

How the values were obtained:
Test in all cases: inhibition of tumour cell growth, NCI panel, 48 h
A549 = system: A549
ACHN = system: ACHN
BT-549 = system: BT-549
HL-60 = system: HL-60
Hs-578T = system: Hs-578T
M14 = system: M14
MCF7 = system: MCF7
MDA-MB-231 = system: MDA-MB-231
NCI-H23 = system: NCI-H23
NCI/ADR-RES = system: NCI/ADR-RES
SF-268 = system: SF-268
SF-539 = system: SF-539
SK-MEL-28 = system: SK-MEL-28
SN12C = system: SN12C
SNB-75 = system: SNB-75
SW-620 = system: SW-620
U-251 = system: U-251
UACC-257 = system: UACC-257
CAKI-1 = system: CAKI-1
RXF 393 = system: RXF 393

Measured: GI50

CC(=O)OC1C2CCC1C1C2N=NN1c1ccc([N+](=O)[O-])cc1 (stereo not drawn)
inactive: A549 > 100 µM | ACHN > 100 µM | BT-549 > 100 µM | HL-60 > 100 µM | Hs-578T > 100 µM | M14 > 100 µM | MCF7 > 100 µM | MDA-MB-231 > 100 µM | NCI-H23 > 100 µM | NCI/ADR-RES > 100 µM | SF-268 > 100 µM | SF-539 > 100 µM | SK-MEL-28 > 100 µM | SN12C > 100 µM | SNB-75 > 100 µM | SW-620 > 100 µM | U-251 > 100 µM | UACC-257 > 100 µM

COc1ccc(-n2cnc3c(NC(CCSC)C(=O)O)ncnc32)cc1 (stereo not drawn)
inactive: A549 > 100 µM | ACHN > 100 µM | BT-549 > 100 µM | CAKI-1 > 100 µM | Hs-578T > 100 µM | M14 > 100 µM | MCF7 > 100 µM | MDA-MB-231 > 100 µM | NCI-H23 > 100 µM | NCI/ADR-RES > 100 µM | SF-268 > 100 µM | SK-MEL-28 > 100 µM | SN12C > 100 µM | SNB-75 > 100 µM | SW-620 > 100 µM | U-251 > 100 µM | UACC-257 > 100 µM

O=C1c2ccccc2NC(=S)[C@@H]2CCCN12
inactive: A549 > 100 µM | ACHN > 100 µM | BT-549 > 100 µM | CAKI-1 > 100 µM | Hs-578T > 100 µM | M14 > 100 µM | MCF7 > 100 µM | MDA-MB-231 > 100 µM | NCI-H23 > 100 µM | NCI/ADR-RES > 100 µM | RXF 393 > 100 µM | SF-268 > 100 µM | SF-539 > 100 µM | SK-MEL-28 > 100 µM | SN12C > 100 µM | SNB-75 > 100 µM | SW-620 > 100 µM | U-251 > 100 µM | UACC-257 > 100 µM

N#CCCN(CCC#N)c1ccc(C(=N/c2ccc(F)cc2)/N=N/c2ccc(Cl)cc2)cc1
inactive: A549 > 100 µM | ACHN > 100 µM | BT-549 > 100 µM | CAKI-1 > 100 µM | Hs-578T > 100 µM | M14 > 100 µM | MCF7 > 100 µM | MDA-MB-231 > 100 µM | NCI-H23 > 100 µM | NCI/ADR-RES > 100 µM | RXF 393 > 100 µM | SF-268 > 100 µM | SF-539 > 100 µM | SK-MEL-28 > 100 µM | SN12C > 100 µM | SNB-75 > 100 µM | SW-620 > 100 µM | U-251 > 100 µM | UACC-257 > 100 µM

CCC1(c2ccc(N3C(=O)c4cccc5cc([N+](=O)[O-])cc(c45)C3=O)cc2)CCC(=O)NC1=O (stereo not drawn)
inactive: A549 55.5 µM | ACHN 11.5 µM | BT-549 13.5 µM | CAKI-1 14.2 µM | Hs-578T 16.1 µM | M14 61.5 µM | MCF7 29.9 µM | MDA-MB-231 5.16 µM | NCI-H23 25.5 µM | NCI/ADR-RES 17 µM | RXF 393 7.14 µM | SF-268 15.1 µM | SF-539 > 10 µM | SK-MEL-28 22.2 µM | SN12C 6.05 µM | SNB-75 7.05 µM | SW-620 11.4 µM | U-251 9.84 µM | UACC-257 47.6 µM

CS(=O)(=O)OCCN1CCC2(CC1)SSC1(CCN(CCOS(C)(=O)=O)CC1)S2
inactive: A549 > 100 µM | ACHN 33.5 µM | BT-549 45.5 µM | CAKI-1 21.8 µM | HL-60 24.3 µM | Hs-578T 82.6 µM | M14 > 100 µM | MCF7 17.1 µM | MDA-MB-231 > 100 µM | NCI-H23 60 µM | NCI/ADR-RES > 100 µM | SF-268 22.3 µM | SF-539 27.7 µM | SK-MEL-28 > 100 µM | SN12C 43 µM | SNB-75 99.1 µM | SW-620 42.3 µM | U-251 72.6 µM | UACC-257 > 100 µM

Cc1ccc(S(=O)(=O)N2c3ccccc3[C@H]3CCC=C[C@H]32)cc1
inactive: A549 6.75 µM | ACHN 19.3 µM | BT-549 8.91 µM | CAKI-1 12.1 µM | HL-60 4.58 µM | Hs-578T 15.4 µM | M14 5.5 µM | MCF7 3.81 µM | MDA-MB-231 49.2 µM | NCI-H23 8.28 µM | RXF 393 3.61 µM | SF-268 10.9 µM | SF-539 9.42 µM | SK-MEL-28 10.9 µM | SN12C 14.5 µM | SNB-75 5.05 µM | SW-620 4.51 µM | U-251 4.78 µM | UACC-257 10.1 µM

CCc1n[nH]c(=O)n1O
inactive: A549 > 100 µM | ACHN > 100 µM | BT-549 > 100 µM | CAKI-1 > 100 µM | HL-60 > 100 µM | Hs-578T > 100 µM | MCF7 > 100 µM | MDA-MB-231 > 100 µM | NCI-H23 > 100 µM | NCI/ADR-RES > 100 µM | SF-268 > 100 µM | SF-539 > 100 µM | SK-MEL-28 > 100 µM | SN12C > 100 µM | SW-620 > 100 µM | U-251 > 100 µM | UACC-257 > 100 µM

COC(=NCCC1=CCCCC1)OC
inactive: A549 69.3 µM | ACHN > 100 µM | BT-549 > 100 µM | CAKI-1 > 100 µM | Hs-578T > 100 µM | M14 21.1 µM | MCF7 47.6 µM | MDA-MB-231 > 100 µM | NCI-H23 58.6 µM | NCI/ADR-RES 58.9 µM | RXF 393 > 100 µM | SF-268 > 100 µM | SK-MEL-28 44.7 µM | SNB-75 71.6 µM | SW-620 62.8 µM | U-251 71.3 µM | UACC-257 39.3 µM

c1ccc(Cn2c(-c3ccc(-c4ccccc4)cc3)cc3ccccc32)cc1
inactive: A549 > 100 µM | ACHN > 100 µM | BT-549 > 100 µM | CAKI-1 > 100 µM | HL-60 > 100 µM | Hs-578T 24.1 µM | M14 > 100 µM | MCF7 > 100 µM | MDA-MB-231 > 100 µM | NCI-H23 > 100 µM | NCI/ADR-RES > 100 µM | SF-268 > 100 µM | SF-539 > 100 µM | SK-MEL-28 > 100 µM | SN12C > 100 µM | SNB-75 58.1 µM | SW-620 > 100 µM | U-251 > 100 µM | UACC-257 > 100 µM

Oc1ccc(/C=N/c2nccs2)c(O)c1
inactive: A549 > 100 µM | ACHN > 100 µM | BT-549 > 100 µM | CAKI-1 > 100 µM | Hs-578T > 100 µM | M14 > 100 µM | MCF7 64 µM | MDA-MB-231 > 100 µM | NCI-H23 > 100 µM | NCI/ADR-RES > 100 µM | RXF 393 > 100 µM | SF-268 > 100 µM | SF-539 > 100 µM | SNB-75 > 100 µM | UACC-257 > 100 µM
